According to article PMC8301452, “Targeting of Protein Kinase CK2 in Acute Myeloid Leukemia Cells Using the Clinical-Grade Synthetic-Peptide CIGB-300” (Biomedicines, 2021):
Bridge positions count the residues as written; N and C are the ends. Square brackets hold non-standard residues; d marks the D form. Peptide text beside a SMILES is read from it. βAla = NCCC(=O)O

Assays:
HL-60 cells [1] = tested on: HL-60 cells; parameters: method as in PMID 24283803, PMID 33562780; conditions: cited from earlier work
[2] = tested on: HL-60 cells transduced with LV-pLG or LV-shRNA; test: PI staining cytotoxicity in NPM1 knock-down cells; type: cell-based, Human; conditions: 20 or 40 µM, 5 h, n = 3
Experimental: Cells were infected with HIV-based third-generation lentiviral particles according to experimental conditions previously described. […]. After virus production and subsequent titration, cells were infected by spinoculation in the presence of polybrene (8 µg/mL) and at 10× multiplicity of infection. On the next day, fresh medium was added, and the cells were allowed to recover for another 48 h. Finally, infected cells were analyzed by flow cytometry and Western blot for evaluation of GFP expression and NPM1 protein levels, respectively.
Figure 4 Lentiviral vector-mediated knock-down of NPM1 in AML cells: (A) Flow cytometry analysis of GFP expression in transduced HL-60 cells at day 7 post-infection. Percentage of GFP+ cells was determined on live-cell population (R1 gate in dot plots); (B) Immunoblots from HL-60 transduced cells showing NPM1 protein knock-down in LV-shRNA infected cells. Densitometry analysis values of NPM1 bands were normalized to β-actin and then to untransduced cells; (C) GFP expression levels and (D) viability of transduced HL-60 cells were followed by flow cytometry during three weeks post-infection; (E) Sensibility of transduced cells toward the cytotoxic effect of CIGB-300 was evaluated by PI staining. Cells were incubated with 20 or 40 µM of CIGB-300 for 5 h, stained with PI solution, and then analyzed by flow cytometry. […]

NPM1 S125 = test: Western blot of CK2-mediated NPM1 phosphorylation; type: cell-based, Human; conditions: both AML cell lines (HL-60, OCI-AML3), 40 µM
Experimental: Cells were lysed in RIPA buffer containing protease/phosphatase inhibitor (Thermo Fisher Scientific, Waltham, MA, USA), and equal amounts of protein were resolved in 12.5% SDS-PAGE [46]. Next, proteins were transferred to a nitrocellulose membrane and immunoblotted with the following antibodies according to instructions from the manufacturer: NPM1, p-NPM1 (S125), and CK2α (Abcam, Cambridge, United Kingdom) and β-actin (Sigma, St. Louis, MO, USA). Detection was performed with peroxidase-conjugated anti-mouse or anti-rabbit IgG (Sigma, St. Louis, MO, USA), and signal was developed using SuperSignal West Pico Chemiluminescent Substrate (Thermo Fisher Scientific, Waltham, MA, USA).
Figure S2. CIGB-300 peptide impairs CK2-mediated phosphorylation of NPM1 in AML cells. Cells treated with
40 µM of CIGB-300 during the indicated times were analyzed by western blot using phospho-specific and total […]

[3] = tested on: chronic and acute T-cell lymphocytic leukemia (CLL and T-ALL); conditions: read-out: IC50, estimated values; cited from earlier work
Experimental: In contrast with solid tumor cells, which display a heterogenous sensitivity profile, leukemia cells are more sensitive to CIGB-300 anti-proliferative effects. Indeed, in a panel containing human lung, cervix, prostate, and colon cancer cell lines, the IC50 values for CIGB-300 ranged between 20 and 300 µM [32], while in chronic and acute T-cell lymphocytic leukemia (CLL and T-ALL), the estimated values were all below 40 µM [34, 44].

HL-60 cells [4] = test: Cell cycle analysis by PI staining and flow cytometry; type: cell-based, Human; conditions: 40 µM, 24 h
Experimental: (§1) For cell cycle analysis, AML cells were incubated with 40 µM CIGB-300 during 24 h. Following treatment with the peptide, cells were collected by centrifugation, washed with PBS, and fixed at 4 °C for 30 min with ice-cold 70% ethanol. After fixation, cells were treated with DNase-free RNase A (Sigma, St. Louis, MO, USA) and subsequently stained at 37 °C for 20 min with 50 µg/mL PI solution (Sigma, St. Louis, MO, USA). Stained cells were analyzed in the abovementioned Partec CyFlow Space flow cytometry, and FlowJo Software (v7.6.1) was used for data processing and visualization.

OCI-AML3 cells = test: as above; type: cell-based, Human; conditions: 40 µM, 24 h
Experimental: as §1

[5] = tested on: primary cells from AML patients' bone marrow samples; test: Annexin V/PI staining, flow cytometry; type: cell-based, Human; conditions: primary cells from the majority of AML patients' bone marrow samples; 40 µM, 48 h
Excerpt: Bone marrow samples from five AML patients with high leukemia involvement were collected in accordance with the Declaration of Helsinki after informed consent and ethical approval of the Clinical Research Board from the Center for Genetic Engineering and Biotechnology (CIGB, Havana, Cuba) (Table S1). Mononuclear cells from bone marrow samples were isolated using Ficoll-Paque (GE Healthcare, Chicago, IL, USA) density gradient centrifugation. Cells were maintained under standard cell culture conditions.
Viability of AML cells was measured using FITC Annexin V Apoptosis Detection Kit I (BD Biosciences, San Jose, CA, USA). Briefly, cell lines were incubated with 40 µM CIGB-300 for 3 and 5 h, while primary cells were incubated during 48 h. Following incubation, cells were washed twice with cold PBS and resuspended in binding buffer (1×) at a final concentration of 1 × 10^6 cells/mL. Subsequently, 5 µL of FITC Annexin V and PI were added, and cell suspensions were incubated for 15 min at room temperature in the dark. Flow cytometric analysis of stained cells was performed in Partec CyFlow Space instrument (Sysmex Partec GmbH, Gorlitz, Germany), and FlowJo software (v7.6.1) (BD, Ashland, OR, USA) was used for data analysis and visualization.

CK2α catalytic subunit = target: T1, CK2α catalytic subunit (Homo sapiens, UniProt P68400); test: In vivo pull-down followed by immunodetection; type: binding; conditions: AML cells, immunoblot
T1 construct: endogenous in cells
T1 sequence (P68400 whole entry): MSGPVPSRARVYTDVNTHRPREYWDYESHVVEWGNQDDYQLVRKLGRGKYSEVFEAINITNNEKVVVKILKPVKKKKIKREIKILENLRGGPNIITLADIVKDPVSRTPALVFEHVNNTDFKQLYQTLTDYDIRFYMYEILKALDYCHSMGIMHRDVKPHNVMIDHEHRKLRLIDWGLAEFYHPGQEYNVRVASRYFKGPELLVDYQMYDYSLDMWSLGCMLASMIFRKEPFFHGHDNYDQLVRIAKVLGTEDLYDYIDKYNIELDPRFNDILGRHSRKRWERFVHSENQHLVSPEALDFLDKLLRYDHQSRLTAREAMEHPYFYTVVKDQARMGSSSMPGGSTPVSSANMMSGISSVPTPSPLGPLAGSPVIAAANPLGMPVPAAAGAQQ
Experimental: For in vivo pull-down assays, CIGB-300 with N-terminal biotin tag (CIGB-300-B) was added to AML cells at a final concentration of 40 µM and incubated for 30 min. Subsequently, cells were collected, washed, and lysed in hypotonic PBS solution (0.1×) containing 1 mM DTT (Sigma, St. Louis, MO, USA) and complete protease inhibitor (Roche, Basel, Switzerland) by eight freeze–thaw (liquid nitrogen/37 °C) cycles. Cellular lysates were cleared by centrifugation, and 300 µg of total protein was added to 30 µL of pre-equilibrated streptavidin–sepharose matrix (GE Healthcare, Chicago, IL, USA). Following 1 h at 4 °C, the matrix was collected by centrifugation and extensively washed with PBS solution (1×) containing 1 mM DTT. Proteins bound to streptavidin–sepharose matrix were digested with trypsin (Promega, Madison, WI, USA) during 16 h or eluted for western blot analysis. In parallel, untreated cells were subjected to the same experimental procedure to identify those proteins non-specifically bound to streptavidin–sepharose matrix.
Cells were lysed in RIPA buffer containing protease/phosphatase inhibitor (Thermo Fisher Scientific, Waltham, MA, USA), and equal amounts of protein were resolved in 12.5% SDS-PAGE [46]. […]

[6] = tested on: CK2 substrates in HL-60 cells; test: Phosphoproteomic analysis; type: cell-based, Human; conditions: 40 µM, 30 min, three replicates
Experimental: (§2) Sample preparation, phosphopeptide enrichment, and nanoLC-MS/MS for phosphoproteomic analysis of AML cells treated or not with 40 µM CIGB-300 during 30 min were conducted as previously described. Briefly, three replicates from each condition were processed by multienzyme digestion filter-aided sample preparation (MED-FASP) with overnight lys-C and tryptic digestions and the phosphopeptides enriched by TiO2 chromatography. Phosphopeptides were later injected through an EASY-nLC 1200 system into a QExactive HF mass spectrometer (Thermo Scientific, USA) using a home-made column ([…], 20 cm length), and were separated with a gradient from 5% buffer B (0.1% formic acid in acetonitrile) up to 30% in 45 min, 30–60% in 5 min, and 60–95% in 5 min more.
(§3) Data processing and quantification were performed in MaxQuant software (v1.6.2.10) and Perseus computational platform (v1.6.2.2). Phosphopeptides dataset was filtered of reverse and potential contaminants hits, and only phosphosites with localization probability above 0.75 were retained for further analysis. Additionally, only those phosphopeptides represented in each group were considered, and differences in phosphosites occupancy higher than 25% were selected as significant changes. Enzyme–substrate relations were retrieved using post-translational modification resource iPTMnet and web-based tool KEA2 [48, 49]. In addition to well-documented substrates, we searched for candidate CK2 substrates based on the presence of the CK2 consensus sequence, the enzyme–substrate predictions retrieved from NetworKIN database, the dataset of high confidence CK2 substrates reported by Bian et al., and the phosphoproteins that interact with protein kinase CK2 according to the Metascape database.

[7] = tested on: CK2 substrates in OCI-AML3 cells; test: Phosphoproteomic analysis; type: cell-based, Human; conditions: 40 µM, 30 min, three replicates
Experimental: as §2, §3

O=C(O)c1ccc2c(c1)nc(Nc1cccc(Cl)c1)c1ccncc12 [CX-4945]
response toward cytotoxic effect (HL-60 cells [1]): refractoriness

CSCC[C@@H]1NC(=O)[C@H](Cc2c[nH]c3ccccc23)NC(=O)[C@@H](NC(=O)CCNC(=O)[C@H](CCC(N)=O)NC(=O)[C@@H]2CCCN2C(=O)[C@@H]2CCCN2C(=O)[C@H](CCCNC(=N)N)NC(=O)[C@H](CCCNC(=N)N)NC(=O)[C@H](CCCNC(=N)N)NC(=O)[C@H](CCC(N)=O)NC(=O)[C@H](CCCNC(=N)N)NC(=O)[C@H](CCCNC(=N)N)NC(=O)[C@H](CCCCN)NC(=O)[C@H](CCCCN)NC(=O)[C@H](CCCNC(=N)N)NC(=O)CN)CSSC[C@@H](C(=O)O)NC(=O)[C@H]([C@@H](C)O)NC(=O)CNC(=O)[C@H](CC(C)C)NC(=O)[C@H](Cc2c[nH]cn2)NC(=O)[C@H](CCCNC(=N)N)NC(=O)[C@@H]2CCCN2C(=O)[C@H](CO)NC1=O [CIGB-300] (H-GRKKRRQRRRPPQ[βAla]CWMSPRHLGTC-OH; disulfide 15-25; N-terminus and C-terminus assumed)
sensibility toward cytotoxic effect, LV-shRNA (NPM1 knock-down roughly 85%) vs LV-pLG [2]: no differential sensibility | CK2-mediated phosphorylation at S125 residue of NPM1 (NPM1 S125): inhibition of CK2-mediated phosphorylation | IC50 [3]: < 40 µM | effect on cell cycle progression (HL-60 cells [4]): accumulation of HL-60 cells in S phase | effect on cell cycle progression (OCI-AML3 cells): no change in cell cycle distribution | effect on viability (Annexin V-FITC/PI) [5]: promoted apoptosis | interaction with CK2α subunit (CK2α catalytic subunit): clear interaction | Occupancy Treated–Control, ABCF1 S140 (Q8NE71) [6]: −0.2693 ^2 | Occupancy Treated–Control, AP3B1 S276 (O00203) [6]: −0.427 | Occupancy Treated–Control, BCLAF1 S397 (Q9NYF8) [6]: −0.2902 ^1 | Occupancy Treated–Control, C1orf52 S158 (Q8N6N3) [6]: −0.3645 | Occupancy Treated–Control, DDX24 S82 (Q9GZR7) [6]: −0.3284 | Occupancy Treated–Control, DKC1 S485 (O60832) [6]: −0.3777 | Occupancy Treated–Control, DKC1 S494 (O60832) [6]: −0.3312 ^1 | Occupancy Treated–Control, EIF3C S39 (Q99613) [6]: −0.2738 ^2 | Occupancy Treated–Control, EIF4G1 S1198 (Q04637) [6]: −0.276 | Occupancy Treated–Control, FKBP15 S346 (Q5T1M5) [6]: −0.25 | Occupancy Treated–Control, HIRIP3 S196 (Q9BW71) [6]: −0.2842 | Occupancy Treated–Control, HIRIP3 S199 (Q9BW71) [6]: −0.2649 | Occupancy Treated–Control, HMGA1 S44 (P17096) [6]: −0.3177 | Occupancy Treated–Control, LEMD3 S144 (Q9Y2U8) [6]: −0.3252 | Occupancy Treated–Control, LYN S13 (P07948) [6]: −0.3987 | Occupancy Treated–Control, M6PR S267 (P20645) [6]: −0.26 | Occupancy Treated–Control, MCM2 S41 (P49736) [6]: −0.421 ^2 | Occupancy Treated–Control, NAP1L4 S125 (Q99733) [6]: −0.3398 | Occupancy Treated–Control, PABPC1 T319 (P11940) [6]: −0.2931 | Occupancy Treated–Control, PAK2 T169 (Q13177) [6]: −0.2963 | Occupancy Treated–Control, PNN S381 (Q9H307) [6]: −0.2998 | Occupancy Treated–Control, SEPTIN2 S218 (Q15019) [6]: −0.2677 ^1, 2 | Occupancy Treated–Control, SRSF11 S464 (Q05519) [6]: −0.3301 | Occupancy Treated–Control, ST13 S75 (P50502) [6]: −0.2852 | Occupancy Treated–Control, STMN1 S63 (P16949) [6]: −0.3357 ^2 | Occupancy Treated–Control, THRAP3 S211 (Q9Y2W1) [6]: −0.2914 | Occupancy Treated–Control, TMPO S66 (P42166) [6]: −0.4836 | Occupancy Treated–Control, TMPO S67 (P42166) [6]: −0.4836 | Occupancy Treated–Control, TOP2A S1106 (P11388) [6]: −0.2854 | Occupancy Treated–Control, XRCC6 S520 (P12956) [6]: −0.3763 | Occupancy Treated–Control, BCLAF1 S397 (Q9NYF8) [7]: −0.3056 ^1 | Occupancy Treated–Control, BRCA1 S1164 (P38398) [7]: −0.3932 | Occupancy Treated–Control, CEP170 S1112 (Q5SW79) [7]: −0.4366 | Occupancy Treated–Control, DKC1 S494 (O60832) [7]: −0.2948 ^1 | Occupancy Treated–Control, EIF5B S214 (O60841) [7]: −0.2868 | Occupancy Treated–Control, HNRNPC S220 (P07910) [7]: −0.4698 | Occupancy Treated–Control, HNRNPC S225 (P07910) [7]: −0.4597 | Occupancy Treated–Control, MCM2 S13 (P49736) [7]: −0.4061 ^2 | Occupancy Treated–Control, MCM2 S139 (P49736) [7]: −0.3422 ^2 | Occupancy Treated–Control, NAP1L4 S7 (Q99733) [7]: −0.2719 | Occupancy Treated–Control, NOP56 S520 (O00567) [7]: −0.3705 | Occupancy Treated–Control, SEPTIN2 S218 (Q15019) [7]: −0.4261 ^1, 2 | Occupancy Treated–Control, SRSF11 S433 (Q05519) [7]: −0.3794 | Occupancy Treated–Control, STT3B S499 (Q8TCJ2) [7]: −0.3445 | Occupancy Treated–Control, TOP2A S1247 (P11388) [7]: −0.3351 | Occupancy Treated–Control, TOP2B S1550 (Q02880) [7]: −0.2936
